# No end group written: not given here.
# What was measured:
# Assay type in all cases: cell-based
# [1] = tested on: bovine articular cartilage explant; experiment: Proteoglycan (GAG) content and release in bovine explant culture; conditions: subpeptides at 1 and 10 μM
# Protocol: The cartilages were prepared as previously described (Dahlberg, L. et al. (2000) supra. In brief, the cartilage samples were washed three times with basal culture medium containing Dulbecco's modified Eagle's medium (DMEM; Gibco BRL, Life Technologies, Grand Island, N.Y.) with 20 mM HEAPS buffer (pH 7.4) (Gibco BRL), 45 mM NaHCO3, 100 units/ml penicillin, 100 μg/ml streptomycin and 150 μg/ml gentamycin sulphate (Medium A). Full-depth cartilage slices from a single area, around 20 mm×20 mm were cut vertical to the articular surface and then into cubes of approximately 2 mm×2 mm (5-7 cubes were randomly obtained and wet weights about 50-70 mg/well determined). The cartilage was assigned to 48 well plate (ca 40 mg/well) and kept in Medium A supplemented with 50 μg/ml ascorbic acid, 0.1 mg/bovine serum albumin, 50 μg/ml insulin, 5.0 μg/ml and 5.0 μg/ml sodium DMEM alone at 37° C. in 95% air/5% CO2. The cartilage was precultured for 2 days and medium was changed at day 0. Thereafter medium (as described in pellet cultures) was replaced every four days. Various CNBr fragments and/or synthetic peptides were freshly added from day 0 at each medium change. Thereafter, cartilage explants and conditioned media were harvested and stored at −20° C. In order to show the specificity of the peptide fragments of one embodiment on degradation of type II collagen as compared with proteoglycan, primarily aggrecan, sulphated glycosaminoglycan (GAG) content was determined in both the α-chymotrypsin and proteinase K digests for total proteoglycan (predominantly aggrecan) content in cell pellets, cartilage explants and also in conditioned media. Measurement of release of proteoglycan into media was tested using dimethylene blue dye binding as previously described (Dahlberg, L. et al. (2000) supra).
# [2] = tested on: bovine articular cartilage explant; experiment: Collagenase-cleaved type II collagen (COL2-3/4C) in bovine articular cartilage explant culture; conditions: 1 and 10 μM, time- and dose-dependent
# Protocol: (§1) The cartilages were prepared as previously described (Dahlberg, L. et al. (2000) supra. In brief, the cartilage samples were washed three times with basal culture medium containing Dulbecco's modified Eagle's medium (DMEM; Gibco BRL, Life Technologies, Grand Island, N.Y.) with 20 mM HEAPS buffer (pH 7.4) (Gibco BRL), 45 mM NaHCO3, 100 units/ml penicillin, 100 μg/ml streptomycin and 150 μg/ml gentamycin sulphate (Medium A). Full-depth cartilage slices from a single area, around 20 mm×20 mm were cut vertical to the articular surface and then into cubes of approximately 2 mm×2 mm (5-7 cubes were randomly obtained and wet weights about 50-70 mg/well determined).
# (§2) The cartilage was assigned to 48 well plate (ca 40 mg/well) and kept in Medium A supplemented with 50 μg/ml ascorbic acid, 0.1 mg/bovine serum albumin, 50 μg/ml insulin, 5.0 μg/ml and 5.0 μg/ml sodium DMEM alone at 37° C. in 95% air/5% CO2. The cartilage was precultured for 2 days and medium was changed at day 0. Thereafter medium (as described in pellet cultures) was replaced every four days. Various CNBr fragments and/or synthetic peptides were freshly added from day 0 at each medium change. Thereafter, cartilage explants and conditioned media were harvested and stored at −20° C.
# (§3) The cell pellets and cartilage explant cultured for various times were digested for the extraction of collagenase-generated neoepitope COL2-3/4Cshort (Billinghurst, R. C. et al., (1997) supra) and denatured type II collagen epitope COL2-3/4m and total type II collagen (Hollander, A. P. et al. (1994a) supra), as previously described: Briefly, the harvested pellets were incubated overnight with 1.0 mg/ml α-chymotrypsin at 37° C. to cleave and solubilize denatured collagen leaving the above neoepitope and epitope intact. After inhibition of α-chymotrypsin activity with N-tosyl-L-phenelalanine-chloromethyl ketone (Sigma), the samples were centrifuged and the supernatants were removed and boiled for 10 min. The COL2-3/4Cshort epitope (hereafter referred to as COL2-3/4Cshort) generated by cleavage of type II collagen by collagenase (Billinghurst, R. C. et al. (1997) supra) and intrachain epitope (COL2-3/4m) exposed in denatured type II collagen (Hollander, A. P. et al. (1994a) supra) were measured in α-chymotrypsin extracts by immunoassay. The COL2-3/4Cshort epitope is detected in an ELISA assay using a rabbit antibody to the carboxyterminal cleavage neoepitope on the TCA piece generated by primary collagenase cleavage of type II collagen. The release of the COL2-3/4C epitope into media was also measured by immunoassay. Total contents in tissue/cells and media was recorded for COL2-3/^4Cshort epitope. The COL2-3/4m epitope was recorded in cells and tissue where it was concentrated. The remaining residues of pellets and explants were digested overnight with 1.0 mg/ml proteinase K at 56° C. to extract the remaining intact type II collagen and then boiled for 10 min to denature the enzyme. Total type II collagen content in the pellets and explant was determined from the collective amount of COL2-3/4m in both the α-chymotrypsin and proteinase K digests.
# ERK1/2 = experiment: Western immunoblot for phosphorylated ERK1/2 in human chondrocytes; conditions: at 15 min; inhibitors added before peptide
# Protocol: To detect activation of MAP kinases (ERK1/2, p38 MAPK, and JNK1/2), first-passaged chondrocytes plated onto 10-cm culture dishes were incubated with CB12-II (SP), USP, TNF-α, native human type II collagen, human fibronectin, and antibodies to α2β1 and α5β1 for 5-60 min. In some experiments, chondrocytes were precultured with U0126 (inhibitor of phosphorylation of MEK1/2, up-stream kinase molecule of ERK1/2) at 1 μM for 1 h, SB203580 (inhibitor of phosphorylation of p38 MAPK) at 1 μM for 1 h, Herbimycin A (tyrosine kinase inhibitor) at 1 μg/ml for overnight, Wortmannin (PI3 kinase inhibitor) at 100 nM for 1 h, and Cytochalasin D (focal adhesion inhibitor) at 3 μM for 30 or 60 min before adding peptides.
# After a variable but designated incubation time, chondrocytes were washed twice with ice cold PBS and lysed in RIPA buffer (10 mM Tris/HCl, pH 7.4, 0.1% SDS, 1% NP-40, 0.1% sodium deoxycholate, 150 mM NaCl, 1 mM EDTA) containing freshly added proteinase and phosphatase inhibitors (1 mM PMSF, 10 μg/ml leupeptin, 1 μg/ml aprotinin, 1 mM Na3VO4, 1 mM NaF). Cell lysate was centrifuged and supernatant was collected. Protein concentration was determined using Bradford's method. Equal amounts of protein were separated on 10% SDS-polyacrylamide gels under reducing conditions and were electrotransferred to a nitrocellulose membrane (Bio-Rad). To block nonspecific binding, the membranes were incubated in PBS containing 5% non-fat milk overnight at 4° C. The membranes were then probed with rabbit antibodies against phosphorylated ERK1/2, p38, and JNK1/2 (New England BioLabs). Antibodies were diluted 1:1000 in PBS containing 0.5% non-fat milk and reacted with the membrane for 1 h at room temperature. Blots were washed with PBS containing 0.1% Tween-20 three times, and incubated for 1 h at room temperature with horseradish peroxidase (HRP)-conjugated goat anti-rabbit IgG (New England BioLabs) diluted 1:2000 with PBS-0.1% Tween 20 for ECL system (Amersham). Then, the membranes were washed with PBS-Tween, and the membranes were detected with the addition of a 1:1 dilution of the ECL detection reagents (Amersham) 1 and 2 for 1 min. The solution was removed, and the membranes were wrapped in plastic wrap and exposed to film for various amounts of time.
# First-passaged confluent human chondrocytes were treated with CB12-II (SP) (10 μM), USP (10 μM), anti-α2β1and α5β1 antibodies, anti-integrin α2β1 blocking antibody, and IL-1β or TNF-α. Cell lysates were immunoblotted using antibody that detects phosphorylated p-ERK1I/2 or p-MEK. In some experiments, U0126 at 10 μM, a specific inhibitor of an upstream molecule, MEK1/2, that activates ERK1/2, and SB203580 at 10 μM, that inhibits p38 MAPK activity, were added to the culture 1 h before peptides, antibodies, and cytokines. Herbimycin A, cytochalasin D, and wortmannin were also used as inhibitors.
# [3] = tested on: normal human adult articular cartilage explants; experiment: Type II collagen cleavage by collagenase (COL2-3/4C) in human articular cartilage explant culture; conditions: by day 16
# Protocol: Human femoral chondylar cartilages were obtained at autopsy within 18 hours of death from adult persons with no known history of arthritis and no macroscopic signs of articular degeneration. None of the persons had diabetes or had received chemotherapy prior to autopsy. Adult bovine articular cartilage was obtained from adults/bovine steers and cows from metacarpalphalangeal joints obtained at the abbatoir immediately after slaughter. All cartilage specimens were removed immediately to the laboratory under sterile conditions.
# as §1, §2, §3
# MMP-1 = experiment: ELISA for MMP-1 in conditioned medium of human chondrocytes; conditions: 48 hours; CB12-II 50 μM, TNF-α 50 ng/ml
# Protocol: (§4) First-passaged normal human chondrocytes isolated by the method described above and cultured at high density (2×10^5 cells/cm^2) were trypsinized and resuspended in Medium A containing 1% FCS at a density of 10^6 cells/ml. Then, 200 μl of the cell suspension was each plated onto round-bottomed 96-well culture plate. On the next day after plating, CB12-II at 50 μM, USP at 50 μM, and TNF-α at 50 ng/ml were added to the culture media, and the culture was maintained for 24-48 hours. Conditioned media were collected and subjected to ELISA assay. The ELISA kits (BIOTRAK) for MMP-1 and MMP-13 were purchased from Amersham Pharmacia Biotech (Piscataway, N.J.). Measurement range was 6.25-100 ng/ml for MMP-1 and 0.094-3 ng/ml for MMP-13. Sensitivity for the assay was 1.7 ng/ml for MMP-1 and 0.7 ng/ml for MMP-13.
# (§5) Protein levels of MMP-1 and MMP-13 were also tested by incubating isolated human chondrocytes for 48 hours in high density culture (10^6 cells/ml) with CB12-II, negative control peptide USP, or cytokine TNF-α, as discussed above. MMP-1 and MMP-13 secretion into medium from the cells was measured using ELISA (see FIGS. 9A and 9B).
# MMP-13 = experiment: ELISA for MMP-13 in conditioned medium of human chondrocytes; conditions: 48 hours; CB12-II 50 μM, TNF-α 50 ng/ml
# Protocol: as §4, §5
Molecule,effect of removal of hydroxylation at a single proline residue on activity of CB12-II (SP) [3],inhibition of phosphorylation of ERK1/2 induced by CB12-II (ERK1/2),also measured
"GLPGVKGHRGYPGLDGAKGEAGAPG [CB12-III, subpeptide of the CB12 peptide of type II collagen]",–,–,proteoglycan breakdown [1]: no significant effect; induction of total collagenase cleavage of type II collagen by CB12 subpeptides [2]: less activity
"CO[C@H]1[C@@H](OC)C[C@H](C)[C@@H](OC)C2=CC(=O)C=C(NC(=O)/C(C)=C/C=C\[C@H](OC)[C@@H](OC(N)=O)/C(C)=C/[C@@H]1C)C2=O [Herbimycin A, reference compound]",–,inhibited,–
"GEAGAPGVKGESGSPGQNGSPGPM (not fully specified) [CB12-IV, subpeptide of CB12; used as non-specific / negative control peptide (USP)]",–,–,proteoglycan breakdown [1]: no significant effect; induction of total collagenase cleavage of type II collagen by CB12 subpeptides [2]: less activity
"GPRGPPGPPGKPGDDGEAGKPGKSGERGPPG [CB12-I, subpeptide of the CB12 peptide of type II collagen]",–,–,proteoglycan breakdown [1]: no significant effect; induction of total collagenase cleavage of type II collagen by CB12 subpeptides [2]: less activity
"C[S+]([O-])c1ccc(-c2nc(-c3ccncc3)c(-c3ccc(F)cc3)[nH]2)cc1 (stereo not shown) [SB203580, reference compound]",–,not,–
"C=C1[C@@H](C)[C@H]2[C@H](Cc3ccccc3)NC(=O)[C@]23[C@H](OC(C)=O)/C=C/[C@@](C)(O)C(=O)[C@@H](C)C/C=C/[C@H]3[C@@H]1O [Cytochalasin D, reference compound]",–,inhibited,–
TNF-α,–,–,MMP-1 secretion into medium versus no peptide and negative control peptide (USP) (MMP-1): significantly higher; MMP-13 secretion into medium versus no peptide and negative control peptide (USP) (MMP-13): significantly higher
"N#CC(=C(/N)Sc1ccccc1N)/C(C#N)=C(\N)Sc1ccccc1N [Peptide U0126, reference compound]",–,inhibited,–

# The next lines start with results.
effect of removal of hydroxylation at a single proline residue on activity of CB12-II (SP) [3],Molecule,inhibition of phosphorylation of ERK1/2 induced by CB12-II (ERK1/2),also measured
no effect on activity,GERGPPGPQGARGFP*GTP*GLP*GVK [SP6],–,–
reduced potency,GERGPP*GPQGARGFP*GTPGLP*GVK [SP18],–,–
reduced potency,GERGPP*GPQGARGFPGTP*GLP*GVK [SP15],–,–
no effect on activity,GERGPP*GPQGARGFP*GTP*GLPGVK [SP21],–,–
